Molecules are shown by their SMILES.

For data set [1], the system named is subcutaneous 22Rv1 human prostate cancer xenograft. In words: Efficacy study in the 22Rv1 xenograft prostate cancer model. It counts as in vivo, male BALB/c nude mice. To be noted: castrated mice, 21 days; doses per Table 1: Cmpd Str (I) 1.25 mg/kg p.o. BID or 10 mg/kg p.o. Q7D; enzalutamide 30 mg/kg p.o. QD; docetaxel 10 mg/kg i.p. Q7D; ABT199 100 mg/kg p.o. QD. On the procedure:
The objective of this study was to evaluate the in vivo therapeutic efficacy of the compound of structure (I) or a pharmaceutically acceptable salt or zwitterionic form thereof in the treatment of a subcutaneous 22Rv1 human prostate cancer xenograft model. For the 22Rv1 model, efficacy of the compound of structure (I) was evaluated in male BALB/c nude mice. Cobalt-60 irradiation of all mice was performed 2 days before the tumor inoculation at 2 Gy (1 Gy=100 rads). Each mouse was inoculated at the right flank with 1×10^7 tumor cells in 0.1 ml of PBS mixed with matrigel (1:1). The date of tumor cell inoculation was denoted as day 0.
Castration was performed when mean tumor volume reached approximately 200 mm^3. Mice were anesthetized with ketamine/xylazine; surgical castration was performed via a midline scrotal incision allowing bilateral access to the hemiscrotal contents; after exposing each testicle, a 6-0 Vicryl suture was used to ligate the spermatic cord and then remove the testicle; the scrota and skin was then closed with 6-0 Vicryl suture, separately. Treatments started when the mean tumor volume re-grew to approximately 100 mm^3.
After tumors reached the appropriate size, approximately 100-200 mm^3, mice were randomized into treatment groups 1-11, which are shown in Table 1. Each treatment was administered starting on day 15, at a dosing volume of 5 μL/g and continued for 21 days (or 22 days for groups with treatment at Q7D). For groups with treatment at Q7D×3 weeks, dosing was performed on days 1, 8, and 15 post-randomization, and the study was terminated on day 22 post randomization. The combined treatment intervals were each 0 h, and the interval for BID was 8 h. Randomization was performed based on the “Matched distribution” method (StudyDirector™ software, version 3.1.399.19) randomized block design.
Tumor volumes were measured twice per week after randomization in two dimensions using a caliper, and the volume was expressed in mm^3 using the formula: “V=(L×W×W)/2,” where V is tumor volume, L is tumor length (the longest tumor dimension) and W is tumor width (the longest tumor dimension perpendicular to L). The average tumor volume for each group, as a percentage of the average tumor volume of the control group (group 1), is shown in FIG. 6. […] The percentage shown in FIG. 7 (% T/C) is calculated as mean(T)/mean(C)*100%, with “T” representing tumor volume and “C” representing tumor volume for group 1.
T and C are the mean tumor volume (or weight) of the treated groups and control group (group 1), respectively, on a given day. The percentages shown in FIG. 10 are calculated as % ΔT/C=(mean(T)−mean(T0))/(mean(C)−mean(C0))*100%, with “0” indicating the initial timepoint.

In a further data set the test system is PC3 cells. In words: Cell viability assay in PC3 prostate cancer cells. Conditions: Homo sapiens, PC-3, alvocidib 3.9 nM-1000 nM. Format: cell-based. On the procedure:
(§1) The compound of structure (I), and pharmaceutically acceptable salts and zwitterionic forms thereof, is converted in vivo to alvocidib (see U.S. Patent Publication No. US 2016/0340376, the full disclosure of which is hereby incorporated by reference in its entirety). Therefore, the in vitro effects of alvocidib were evaluated in multiple prostate cancer cell lines with varied sensitivity to androgen. PC3 is an AR-negative prostate cancer cell line with little to no expression of PSA and low sensitivity to androgens. VCAP is a prostate cancer cell line that is positive for ARv7, and can grow in an androgen-independent manner. LNCAP is an androgen-dependent prostate cancer cell line. 22Rv1 is a prostate cancer cell line that is positive for ARv7, has low sensitivity to androgen, and is derived from a xenograft that was serially propagated in mice after castration-induced regression and relapse of the parental, androgen-dependent CWR22 xenograft. […] Cell viability may be assessed, for example, using CellTiter-Glo according to manufacturer protocol.

The test system of a further data set is VCAP cells. In words: Cell viability assay in VCAP prostate cancer cells. It counts as cell-based. Conditions: Homo sapiens, alvocidib 3.9 nM-1000 nM. On the procedure:
as §1

In another data set the test system is LNCaP cells. In words: Cell viability assay in LNCaP prostate cancer cells. It counts as cell-based. To be noted: Homo sapiens, alvocidib 3.9 nM-1000 nM. As to the method: as §1
For another data set, the system named is 22Rv1 cells. Briefly: Cell viability assay in 22Rv1 prostate cancer cells. To be noted: Homo sapiens, alvocidib 0.0026 nM-1000 nM. It counts as cell-based. On the procedure: as §1
The test system of data set [2] is androgen receptor (phospho- and total-AR) in 22Rv1 and LNCaP cells. Briefly: Immunoblotting of androgen receptor in serum-stimulated prostate cancer cells. It counts as cell-based, human. Conditions: 80 nM or 160 nM, 24 hours of treatment, serum stimulated 1 hour before collection. On the procedure: In a first experiment to evaluate the effects of alvocidib on serum stimulated prostate cancer cells, androgen receptor expression was assessed by immunoblotting. […] The prostate cancer cells, 22Rv1 or LNCaP, were treated with DMSO or alvocidib (80 nM or 160 nM), for either 3 hours or 24 hours, and were serum stimulated one hour prior to sample collection (or the cells were serum starved as a control).
In general terms: In western blotting, separated proteins are transferred to a membrane and probed.

Data set [3] concerns TMPRSS2 expression in 22Rv1 cells. Briefly: Quantitative real-time PCR of TMPRSS2 mRNA in serum-stimulated 22Rv1 cells. Format: cell-based, human. Conditions: 80 nM or 160 nM, 3 or 24 hours, 22Rv1 cells serum stimulated 1 hour before collection. (In general: In qPCR the cycle at which signal appears reflects the starting amount.)
Procedure: In another experiment; androgen receptor expression and functionality were assessed using quantitative real-time PCR measurement of the mRNA level of transmembrane protease, serine 2 (TMPRSS2) mRNA levels in prostate cancer cell line 22Rv1, as described in Chen et al., 2012. […] TMPRSS1 is an androgen-responsive gene, which is transcriptionally regulated by androgen receptor. An androgen response may be driven by the addition of exogenous testosterone; or by serum stimulation (which contains androgens), in prostate cancer cell lines.
The 22Rv1 cells were treated with DMSO or alvocidib (80 nM or 160 nM) for either 3 hours or 24 hours, and serum stimulated one hour prior to sample collection (or the cells were serum starved as a control).
The test system of data set [4] is PSA expression in 22Rv1 cells. Briefly: PSA expression in serum-stimulated 22Rv1 cells. Format: cell-based, human. To be noted: 80 nM or 160 nM, 24 hours. On the procedure:
The 22Rv1 cells were treated with DMSO or alvocidib (80 nM or 160 nM) for 24 hours, and serum stimulated either 3 hours or 23 hours following treatment (or the cells were serum starved as a control).

Data set [5] relates to RNA Pol II phosphorylation in 22Rv1 cells. In words: RNA Pol II phosphorylation by flow cytometry in 22Rv1 cells. It counts as cell-based, human. To be noted: 80 nM or 160 nM, three hours, 10% serum stimulated 1 hour before collection; vs DMSO. As to the method: To evaluate the effects of alvocidib on serum-stimulated prostate cancer cells, RNA Polymerase (Pol) II phosphorylation was assessed by flow cytometry. The prostate cancer cells, 22Rv1 cells, were treated with DMSO or alvocidib (80 nM or 160 nM) for three hours, and were serum stimulated (10%) one hour prior to sample collection. Goat anti-rabbit IgG H&L was used as an isotype control.

The test system of another data set is PSA in VCaP cells. Briefly: PSA protein level by Western blot in VCaP cells. It counts as cell-based. To be noted: 25 nM or 100 nM, 48 hours, vs vehicle. As to the method:
(§2) On the day of the treatment, the media was replaced with 10 mL of fresh media. […] Cells were collected by scraping, washed in PBS, and lysed using sonication in RIPA buffer supplemented with protease and phosphatase inhibitors. […] of protein was loaded into a 4-12% gel, and transferred to a nitrocellulose membrane. Blocking, anti-actin, and secondary staining was done in 5% milk. Anti-PSA antibody was diluted in BSA.

For the next data set, the system named is PSA in LNCaP cells. Briefly: PSA protein level by Western blot in LNCaP cells. Format: cell-based, human. To be noted: 25 nM or 100 nM, 48 hours, vs vehicle. As to the method:
as §2

For data set [6], the system named is LNCaP cells (caspase 3 cleavage). In words: Cell death by caspase 3 cleavage Western blot in LNCaP cells. Format: cell-based, human. Conditions: 100 nM, 48 hours, 10% serum. On the procedure:
LNCaP cells were treated with 100 nM alvocidib for 48 hours in regular 10% serum conditions. Cells were collected by scraping, washed in PBS, and lysed using sonication in RIPA buffer supplemented with protease and phosphatase inhibitors. […] of protein was loaded into a 4-12% gel, and transferred to a PVDF membrane. Blocking and staining was performed in 5% milk. […] Anti-actin was used as a loading control.

Data set [7] can be described thus: PK analysis in PC-3 mouse xenograft model (plasma and tumor, LC-MS/MS). It counts as in vivo. Conditions: 24 hours after oral gavage of compound of structure (I) 7.5 or 15 mg/kg; PC-3 xenograft mice.
Procedure: PC-3 prostate tumor cells were maintained in vitro as a monolayer culture in Ham's F12K medium supplemented with 10% fetal bovine serum at 37° C. in an atmosphere of 5% CO2 in air. The cells in an exponential growth phase were harvested and counted for tumor inoculation. Each mouse was inoculated subcutaneously at the right flank region with PC-3 prostate tumor cells (5×10^6 cells) in 0.1 ml of PBS for tumor development. When the mean tumor size reached approximately 300 mm^3, the mice were randomized and divided into study groups.
Data set [8] in a line: Phase I dose-escalation study in patients with advanced solid tumors: plasma PK. Format: in vivo, human. To be noted: for Tmax: plasma alvocidib, Cohort 5, 6 mg BID oral compound of structure (I) (Formulation No. 401-01). On the procedure:
Plasma PK parameters of compound of structure (I) and alvocidib were evaluated in Cohorts 1-5 at specific timepoints during the study. Blood was collected from patients in Cohorts 1-5 according to the pharmacokinetic sampling schedule described in Table 9.
PK parameters were estimated using standard noncompartmental methods. Actual sample collection times were used rather than scheduled collection times. Plasma concentrations below the limit of quantification were treated as 0. Imbedded missing plasma concentrations (e.g., missing values between two observed values) were estimated using linear […]. This is consistent with using the trapezoidal rule to calculate AUC. Other missing plasma concentrations were excluded from calculations to estimate PK parameters.

`CC(=O)O[C@@]12CO[C@@H]1C[C@H](O)[C@@]1(C)C(=O)[C@H](O)C3=C(C)[C@@H](OC(=O)[C@H](O)[C@@H](NC(=O)OC(C)(C)C)c4ccccc4)C[C@@](O)([C@@H](OC(=O)c4ccccc4)[C@H]21)C3(C)C` [docetaxel, 1,7β,10β-trihydroxy-9-oxo-5β,20-epoxytax-11-ene-2α,4,13α-triyl 4-acetate 2-benzoate 13-{(2R,3S)-3-[(tert-butoxycarbonyl)amino]-2-hydroxy-3-phenylpropanoate}]: the “anti-cancer activity in the 22Rv1 xenograft model (tumor growth)” value (from here on “anti-cancer activity”) in data set [1] is given as “not active”.
With `CC1(C)CCC(CN2CCN(c3ccc(C(=O)NS(=O)(=O)c4ccc(NCC5CCOCC5)c([N+](=O)[O-])c4)c(Oc4cnc5[nH]ccc5c4)c3)CC2)=C(c2ccc(Cl)cc2)C1` [venetoclax], in data set [1], the “anti-cancer activity” value is given as “not active”.
The term IC50 denotes the concentration that inhibits the measured activity by half. Higher therefore signals weaker potency in that assay. One may read the Tmax as the time from dosing to the highest level. For `CN1CC[C@H](c2c(O)cc(O)c3c(=O)cc(-c4ccccc4Cl)oc23)[C@H](O)C1` [alvocidib, 2-(2-chlorophenyl)-5,7-dihydroxy-8-[(3S,4R)-3-hydroxy-1-methylpiperidin-4-yl]chromen-4-one], the concentration for half-maximal inhibition (IC50) amounted to 102 nM in the data set on PC3 cells, 34.5 nM in the data set with VCAP cells, 31.8 nM with LNCaP cells and 169 nM with 22Rv1 cells. Also, the “phospho- and total-AR protein levels” value in data set [2] was “lowers phospho- and total-AR levels”. Further, the “serum-stimulated induction of TMPRSS2 expression” value in data set [3] is on record as “inhibited serum-stimulated induction of TMPRSS2”. In addition, the “serum stimulated induction of PSA expression” value in data set [4] is listed as “inhibited serum stimulated induction of PSA”. Also, in [5], the “RNA Pol II phosphorylation staining (flow cytometry)” value is “dose-dependent reduction”. Further, the “PSA expression at protein level” value in the data set on PSA in VCaP cells and with PSA in LNCaP cells was “inhibited PSA expression” in each case. Moreover, the “cell death, as indicated by caspase 3 cleavage” value in [6] is listed as “induced cell death”. The “retention of alvocidib in plasma and tumor” value in data set [7] is “retained in plasma and tumor tissues”. Also, the “accumulation of alvocidib in plasma” value in data set [8] (Cohort 1, 1 mg QD oral Formulation No. 401-01, Subject 104, after 24 hours on day 14) is given as “some accumulation”. Moreover, in data set [8] (Cohort 2, 1 mg BID oral Formulation No. 401-01), the “change in average Cmax and AUC of alvocidib from day 1 to day 14” value was “marked increase”. Also, the time to peak (Tmax) in [8] (Cycle 1 Day 1, Mean of subjects 501-503) turned out to be 60 min; in data set [8] (Cycle 1 Day 1, Subject 501) it was 30 min; in [8] (Cycle 1 Day 1, Subject 502), 120 min; in data set [8] (Cycle 1 Day 1, Subject 503) it was 30 min; in data set [8] (Cycle 1 Day 14, Mean of subjects 501-503), 60 min; in [8] (Cycle 1 Day 14, Subject 501), 30 min. The time to peak (Tmax) in data set [8] (Cycle 1 Day 14, Subject 502) stood at 120 min; in data set [8] (Cycle 1 Day 14, Subject 503), 30 min.
For the compound `CNC(=O)c1ccc(N2C(=S)N(c3ccc(C#N)c(C(F)(F)F)c3)C(=O)C2(C)C)cc1F` [enzalutamide, 4-(3-(4-cyano-3-(trifluoromethyl)phenyl)-5,5-dimethyl-4-oxo-2-thioxoimidazolidin-1-yl)-2-fluoro-N-methylbenzamide], the “anti-cancer activity” value in [1] was “not active”.

The values are drawn from patent US20200281949A1, “METHODS FOR TREATING CASTRATION-RESISTANT AND CASTRATION-SENSITIVE PROSTATE CANCER” (TOLERO PHARMACEUTICALS, INC., priority 2018, published 2020).
